From publication PMC9775322, “An Integrated Analysis of Mechanistic Insights into Biomolecular Interactions and Molecular Dynamics of Bio-Inspired Cu(II) and Zn(II) Complexes towards DNA/BSA/SARS-CoV-2 3CL^pro by Molecular Docking-Based Virtual Screening and FRET Detection” (Biomolecules, 2022)

Tested on: CT-DNA
Assay: DNA thermal denaturation (biothermodynamic properties)
Type: binding, calf
Conditions: for ΔS°: (ΔH°−ΔG°)/Tm; for ΔH°: Van't Hoff equation; for Tm °C of DNA-compound adduct / Tm (K) of DNA-compound adduct: compound 50 μM : CT-DNA 50 μM (1:1), 260 nm; for Tm °C of DNA-compound adduct: CT DNA alone 68 °C; for Tm (K) of DNA-compound adduct: CT DNA alone 341 K; for ΔTm °C: melting temperature change vs DNA alone; for ΔG°: −R·Tm·ln Km
Method: The biothermodynamic properties were obtained from absorption titration by a UV–visible spectrophotometer, accomplished with a temperature-controlled sample container in both the presence and absence of the substances. In a 5 mM Tris-HCl/50 mM NaCl buffer solution with a pH of 7.4, each test substance (50 μM) was incubated with CT-DNA (50 μM) in a 1:1 ratio. The test materials were all warmed at a rate of five degrees Celsius per minute to temperatures between 25 and 100 °C, and the changes in absorbance at 260 nm were carefully monitored. […]
ɛa is represented as the apparent absorption coefficient value for the MLCT band at a specific concentration of deoxyribonucleic acid and evaluated from Abs/[complex]. ɛ f and ɛb are the absorption coefficients for the chemical substance alone and completely interacted with deoxyribonucleic acid, respectively. ∆Amax = (Amax–A0); ∆A=(Ax–A0), where A0, Ax and Amax are denoted as the optical density of chemical substances alone, the middle form, and the completely interacted form with deoxyribonucleic acid, respectively.
2.2.3. Evaluation of biothermodynamic properties
The thermal denaturation study of CT-DNA is an efficient tool for examining the stability of test compounds bound to double-stranded DNA. […]
double to single stranded DNA. The biothermodynamic parameters also involve powerful proof for binding between test compounds and DNA. The denaturation of the biomolecules depends on T m, pH and non-physiological concentrations of salt, organic solvents and other chemical agents, etc. The DNA double helix breaks into two single strands as the temperature or pH rises, which is ascribed to the breaking of hydrophobic stacking attractions and the dissolution of H-bonds between the DNA base pairs as a result of the hydroxide ions' […]
withdrawing of the hydrogen ions (H +) from DNA base pairs. It causes a hyperchromic shift […]
inversely proportional to viscosity. Low salt concentration, conversely, can also denature DNA double-strands by eliminating the ions that stabilize the negative charges on the two strands from each other. By using UV-Vis analysis in a temperature-controlled sample holder, DNA thermal denaturation was carried out both in the absence and presence of the test compounds. In 5mM Tris-HCl /50 mM NaCl buffer (pH = 7.4) solution, each test substance (50 μM) was incubated in a 1:1 ratio with CT- DNA (50 μM). All samples were heated in the range of 25 to 100 °C at a rate of 5 °C per minute and the absorbance changes at 260 nm were constantly monitored. T m of DNA alone was evaluated as the midpoint of the sigmoid’ curves plotted absorbance vs temperature profiles. The Tm is depends on the double-stranded DNA stability. Due to substantial intercalation in DNA-complex adducts, the […]
temperature. When increasing temperature, double-stranded DNA converts into two single strands at the melting point, which leads to hyperchromic effect due to reducing the base-base interaction. As compared to DNA alone at the same high temperature, the incubated DNA solution with test compounds leads to hyporchromic effect accompanied with red shift.
Strong interactions between complexes and DNA, which restrict the separation of the double helix, cause the stabilization, and as a result, T m rises. In accordance with the T m, 50% of DNA is in its native double-stranded state, and the remaining 50% is in its denaturalized single-stranded state.
ΔG° = – R.Tm. lnKm = ΔH°– Tm ΔS° (S10)
Where K1 is represented as the binding constant value at 298 K (T r), the binding constant K 2 (Km), which indicates the temperature at which substances melt their DNA (T m K), This […]
technique offers crucial data on binding constants and associated ΔG °, ΔS° and ΔH° findings for compound-deoxyribonucleic acid systems. […]
not deliver definite confirmation for the exact mode of interactions. The experiment

SMILES | Binding Constant Kr (or) K1 @ 298 K [M⁻¹] | ΔS° [cal mol^−1 K^−1] | ΔH° [kcal/mol] | Tm °C of DNA-compound adduct [°C] | Tm (K) of DNA-compound adduct [K] | ΔTm °C [°C] | ΔG° [kcal/mol]
Oc1ccccc1N=Cc1ccc(N2CCOCC2)cc1 [(HL), 2-(4-morpholinobenzylideneamino)phenol] | 15169 | −13.7851 | -9.8083 | 74 | 347.0 | 6 | -5.0249
[Cu+2].[O-]c1ccccc1N=Cc1ccc(N2CCOCC2)cc1.[O-]c1ccccc1N=Cc1ccc(N2CCOCC2)cc1.c1cnc2c(c1)ccc1cccnc12 [(1b), [Cu^II(L)2(phen)]] | 20610 | −7.6237 | -8.1538 | 80.5 | 353.5 | 12.5 | -5.4588
[O-]c1ccccc1N=Cc1ccc(N2CCOCC2)cc1.[O-]c1ccccc1N=Cc1ccc(N2CCOCC2)cc1.[Zn+2].c1cnc2c(c1)ccc1cccnc12 [(2b), [Zn^II(L)2(phen)]] | 19930 | −9.1806 | -8.5979 | 78.5 | 351.5 | 10.5 | -5.3709
